Results published in patent publication US9809625B2, “Immunomodulators” (BRISTOL-MYERS SQUIBB COMPANY, priority 2015, dated 2017).
Bridge positions count the residues as written; N and C are the ends. Square brackets hold non-standard residues; d marks the D form. Peptide text beside a SMILES is read from it. * marks the point of attachment. ξ: configuration not given here. Trp(1-CH2COOH) = N[C@@H](Cc1cn(CC(=O)O)c2ccccc12)C(=O)O; Hyp = O=C(O)[C@@H]1C[C@@H](O)CN1; ξW = NC(Cc1c[nH]c2ccccc12)C(=O)O; NH(3-picolyl) = c1cncc(CN*)c1; NMeNle = CCCC[C@H](NC)C(=O)O; Morpholide = C1CN(*)CCO1; NMeA = CN[C@@H](C)C(=O)O; Dab = NCC[C@H](N)C(=O)O; Dap = NC[C@H](N)C(=O)O; X10 = c1ccc(OCCN*)cc1; NHBn = c1ccc(CN*)cc1; N(Me)nPr = CCCN(C)*; NHCH2cPr = C1CC1CN*; X12 = OCC1CCN(*)CC1; X9 = OCCN(CCO)CCCN*; NHcBu = C1CC(N*)C1; βAla = NCCC(=O)O; Sar = CNCC(=O)O

Biological target: T1, PD-1-Ig binding to PD-L1-TVMV-His (PD-L1-His) (Homo sapiens, UniProt Q9NZQ7)
T1 construct: hPDL1(19-239)-TVMV-His; TVMV protease cleavage site (C); made in house; host or cells: HEK293T
T1 sequence (Q9NZQ7 with tags, fused parts or gaps): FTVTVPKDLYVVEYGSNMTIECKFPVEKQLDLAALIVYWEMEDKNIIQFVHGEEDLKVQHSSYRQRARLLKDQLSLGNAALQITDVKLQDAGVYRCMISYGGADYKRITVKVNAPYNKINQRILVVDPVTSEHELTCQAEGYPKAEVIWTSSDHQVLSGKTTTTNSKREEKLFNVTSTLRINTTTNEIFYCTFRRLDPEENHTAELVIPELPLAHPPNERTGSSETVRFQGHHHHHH
Assay: PD-1/PD-L1 Homogenous Time-Resolved Fluorescence (HTRF) binding assay
Conditions: PD-1-Ig (20 nM)/PD-L1-His (10 nM), range classes
Description: Methods for Testing the Ability of Macrocyclic Peptides to Compete for the Binding of PD-1 to PD-L1 Using Homogenous Time-Resolved Fluorescence (HTRF) Binding Assays
The ability of the macrocyclic peptides of the present disclosure to bind to PD-L1 was investigated using a PD-1/PD-L1 Homogenous Time-Resolved Fluorescence (HTRF) binding assay.
Homogenous Time-Resolved Fluorescence (HTRF) Assays of Binding of Soluble PD-1 to Soluble PD-L1. Soluble PD-1 and soluble PD-L1 refers to proteins with carboxyl-end truncations that remove the transmembrane-spanning regions and are fused to heterologous sequences, specifically the Fc portion of the human immunoglobuling G sequence (Ig) or the hexahistidine epitope tag (His). All binding studies were performed in an HTRF assay buffer consisting of dPBS supplemented with 0.1% (w/v) bovine serum albumin and 0.05% (v/v) Tween-20. For the PD-1-Ig/PD-L1-His binding assay, inhibitors were pre-incubated with PD-L1-His (10 nM final) for 15 m in 4 μl of assay buffer, followed by addition of PD-1-Ig (20 nM final) in 1 μl of assay buffer and further incubation for 15 m. PD-L1 fusion proteins from either human, cynomologous macaques, mouse, or other species were used. HTRF detection was achieved using europium crypate-labeled anti-Ig monoclonal antibody (1 nM final) and allophycocyanin (APC) labeled anti-His monoclonal antibody (20 nM final). Antibodies were diluted in HTRF detection buffer and 5 μl was dispensed on top of binding reaction. The reaction was allowed to equilibrate for 30 minutes and signal (665 nm/620 nm ratio) was obtained using an EnVision fluorometer. Additional binding assays were established between PD-1-Ig/PD-L2-His (20 and 5 nM, respectively), CD80-His/PD-L1-Ig (100 and 10 nM, respectively) and CD80-His/CTLA4-Ig (10 and 5 nM, respectively). Binding/competition studies between biotinylated Compound No. 71 and human PD-L1-His were performed as follows. Macrocyclic peptide inhibitors were pre-incubated with PD-L1-His (10 nM final) for 60 minutes in 4 μl of assay buffer followed by addition of biotinylated Compound No. 71 (0.5 nM final) in 1 μl of assay buffer. Binding was allowed to equilibrate for 30 minutes followed by addition of europium crypated labeled Streptavidin (2.5 pM final) and APC-labeled anti-His (20 nM final) in 5 μl of HTRF buffer. The reaction was allowed to equilibrate for 30 m and signal (665 nm/620 nm ratio) was obtained using an EnVision fluorometer.
Recombinant Proteins. Carboxyl-truncated human PD-1 (amino acids 25-167) with a C-terminal human Ig epitope tag [hPD-1 (25-167)-3S-IG] and human PD-L1 (amino acids 18-239) with a C-terminal His epitope tag [hPD-L1(19-239)-tobacco vein mottling virus protease cleavage site (TVMV)-His] were expressed in HEK293T cells and purified sequentially by recombinant Protein A affinity chromatography and size exclusion chromatography. Human PD-L2-His (Sino Biologicals), CD80-His (Sino Biologicals), CTLA4-Ig (RnD Systems) were all obtained through commercial sources.

SMILES	IC50
CCCC[C@H]1C(=O)N(C)[C@@H](CCCC)C(=O)N[C@@H](CC(C)C)C(=O)N[C@H](C(=O)NCC(=O)NCc2ccccc2)CSCC(=O)N[C@@H](Cc2ccc(O)cc2)C(=O)N(C)[C@@H](C)C(=O)N[C@@H](CC(N)=O)C(=O)N2CCC[C@H]2C(=O)N[C@@H](CN)C(=O)N[C@@H](CC(C)C)C(=O)N2C[C@H](O)C[C@H]2C(=O)N[C@@H](Cc2c[nH]c3ccccc23)C(=O)N[C@@H](CCN)C(=O)N[C@@H](Cc2cn(CC(=O)O)c3ccccc23)C(=O)N1C [Example 13080] ({CH2CO}-Y[NMeA]NP[Dap]L[Hyp]W[Dab][Trp(1-CH2COOH)][NMeNle][NMeNle]LCG-NHBn; thioether N-14)	4 to 9.9 nM
CCCC[C@H]1C(=O)N(C)[C@@H](CCCC)C(=O)N[C@@H](CC(C)C)C(=O)N[C@H](C(=O)NCC(=O)NCCC(N)=O)CSCC(=O)N[C@@H](Cc2ccc(O)cc2)C(=O)N(C)[C@@H](C)C(=O)N[C@@H](CC(N)=O)C(=O)N2CCC[C@H]2C(=O)N[C@@H](CN)C(=O)N[C@@H](CC(C)C)C(=O)N2C[C@H](O)C[C@H]2C(=O)N[C@@H](Cc2c[nH]c3ccccc23)C(=O)NCC(=O)NC(Cc2c[nH]c3ccccc23)C(=O)N1C (stereo partly drawn) [Example 13110] ({CH2CO}-Y[NMeA]NP[Dap]L[Hyp]WG[ξW][NMeNle][NMeNle]LCG[βAla]-NH2; thioether N-14)	4 to 9.9 nM
CCCC[C@H]1C(=O)N(C)[C@@H](CCCC)C(=O)N[C@@H](CC(C)C)C(=O)N[C@H](C(=O)N(C)CC(N)=O)CSCC(=O)N[C@@H](Cc2ccc(O)cc2)C(=O)N(C)[C@@H](C)C(=O)N[C@@H](CC(N)=O)C(=O)N2CCC[C@H]2C(=O)N[C@@H](CN)C(=O)N[C@@H](CC(C)C)C(=O)N2C[C@H](O)C[C@H]2C(=O)N[C@@H](Cc2c[nH]c3ccccc23)C(=O)NCC(=O)N[C@@H](Cc2c[nH]c3ccccc23)C(=O)N1C [Example 13119] ({CH2CO}-Y[NMeA]NP[Dap]L[Hyp]WGW[NMeNle][NMeNle]LC[Sar]-NH2; thioether N-14)	10 to 60 nM
CCCC[C@H]1C(=O)N(C)[C@@H](CCCC)C(=O)N[C@@H](CC(C)C)C(=O)N[C@H](C(=O)NCC(=O)NCc2cccnc2)CSCC(=O)N[C@@H](Cc2ccc(O)cc2)C(=O)N(C)[C@@H](C)C(=O)N[C@@H](CC(N)=O)C(=O)N2CCC[C@H]2C(=O)N[C@@H](CN)C(=O)N[C@@H](CC(C)C)C(=O)N2C[C@H](O)C[C@H]2C(=O)N[C@@H](Cc2c[nH]c3ccccc23)C(=O)NCC(=O)NC(Cc2c[nH]c3ccccc23)C(=O)N1C (stereo partly drawn) [Example 13094] ({CH2CO}-Y[NMeA]NP[Dap]L[Hyp]WG[ξW][NMeNle][NMeNle]LCG-{NH(3-picolyl)}; thioether N-14)	10 to 60 nM
CCCC[C@H]1C(=O)N(C)[C@@H](CCCC)C(=O)N[C@@H](CC(C)C)C(=O)N[C@H](C(=O)NCC(=O)NCCOc2ccccc2)CSCC(=O)N[C@@H](Cc2ccc(O)cc2)C(=O)N(C)[C@@H](C)C(=O)N[C@@H](CC(N)=O)C(=O)N2CCC[C@H]2C(=O)N[C@@H](CN)C(=O)N[C@@H](CC(C)C)C(=O)N2C[C@H](O)C[C@H]2C(=O)N[C@@H](Cc2c[nH]c3ccccc23)C(=O)NCC(=O)N[C@@H](Cc2c[nH]c3ccccc23)C(=O)N1C [Example 13108] ({CH2CO}-Y[NMeA]NP[Dap]L[Hyp]WGW[NMeNle][NMeNle]LCG-X10; thioether N-14)	10 to 60 nM
CCCC[C@H]1C(=O)N(C)[C@@H](CCCC)C(=O)N[C@@H](CC(C)C)C(=O)N[C@H](C(=O)N(C)CC(N)=O)CSCC(=O)N[C@@H](Cc2ccc(O)cc2)C(=O)N(C)[C@@H](C)C(=O)N[C@@H](CC(N)=O)C(=O)N2CCC[C@H]2C(=O)N[C@@H](CN)C(=O)N[C@@H](CC(C)C)C(=O)N2C[C@H](O)C[C@H]2C(=O)N[C@@H](Cc2c[nH]c3ccccc23)C(=O)NCC(=O)N[C@@H](Cc2c[nH]c3ccccc23)C(=O)N1C [Example 13090] ({CH2CO}-Y[NMeA]NP[Dap]L[Hyp]WGW[NMeNle][NMeNle]LC[Sar]-NH2; thioether N-14)	4 to 9.9 nM

Now from value to molecule:

IC50	SMILES
10 to 60 nM	CCCC[C@H]1C(=O)N(C)[C@@H](CCCC)C(=O)N[C@@H](CC(C)C)C(=O)N[C@H](C(=O)NCC(=O)NCCCN(CCO)CCO)CSCC(=O)N[C@@H](Cc2ccc(O)cc2)C(=O)N(C)[C@@H](C)C(=O)N[C@@H](CC(N)=O)C(=O)N2CCC[C@H]2C(=O)N[C@@H](CN)C(=O)N[C@@H](CC(C)C)C(=O)N2C[C@H](O)C[C@H]2C(=O)N[C@@H](Cc2c[nH]c3ccccc23)C(=O)NCC(=O)N[C@@H](Cc2c[nH]c3ccccc23)C(=O)N1C [Example 13107] ({CH2CO}-Y[NMeA]NP[Dap]L[Hyp]WGW[NMeNle][NMeNle]LCG-X9; thioether N-14)
10 to 60 nM	CCCC[C@H]1C(=O)N(C)[C@@H](CCCC)C(=O)N[C@@H](CC(C)C)C(=O)N[C@H](C(=O)NCC(=O)N2CCOCC2)CSCC(=O)N[C@@H](Cc2ccc(O)cc2)C(=O)N(C)[C@@H](C)C(=O)N[C@@H](CC(N)=O)C(=O)N2CCC[C@H]2C(=O)N[C@@H](CN)C(=O)N[C@@H](CC(C)C)C(=O)N2C[C@H](O)C[C@H]2C(=O)N[C@@H](Cc2c[nH]c3ccccc23)C(=O)NCC(=O)N[C@@H](Cc2c[nH]c3ccccc23)C(=O)N1C [Example 13087] ({CH2CO}-Y[NMeA]NP[Dap]L[Hyp]WGW[NMeNle][NMeNle]LCG-Morpholide; thioether N-14)
10 to 60 nM	CCCC[C@H]1C(=O)N(C)[C@@H](CCCC)C(=O)N[C@@H](CC(C)C)C(=O)N[C@H](C(=O)NCC(=O)N2CCC(CO)CC2)CSCC(=O)N[C@@H](Cc2ccc(O)cc2)C(=O)N(C)[C@@H](C)C(=O)N[C@@H](CC(N)=O)C(=O)N2CCC[C@H]2C(=O)N[C@@H](CN)C(=O)N[C@@H](CC(C)C)C(=O)N2C[C@H](O)C[C@H]2C(=O)N[C@@H](Cc2c[nH]c3ccccc23)C(=O)NCC(=O)NC(Cc2c[nH]c3ccccc23)C(=O)N1C (stereo partly drawn) [Example 13111] ({CH2CO}-Y[NMeA]NP[Dap]L[Hyp]WG[ξW][NMeNle][NMeNle]LCG-X12; thioether N-14)
10 to 60 nM	CCCC[C@H]1C(=O)N(C)[C@@H](CCCC)C(=O)N[C@@H](CC(C)C)C(=O)N[C@H](C(=O)NCC(=O)N(C)CCC)CSCC(=O)N[C@@H](Cc2ccc(O)cc2)C(=O)N(C)[C@@H](C)C(=O)N[C@@H](CC(N)=O)C(=O)N2CCC[C@H]2C(=O)N[C@@H](CN)C(=O)N[C@@H](CC(C)C)C(=O)N2C[C@H](O)C[C@H]2C(=O)N[C@@H](Cc2c[nH]c3ccccc23)C(=O)NCC(=O)N[C@@H](Cc2c[nH]c3ccccc23)C(=O)N1C [Example 13084] ({CH2CO}-Y[NMeA]NP[Dap]L[Hyp]WGW[NMeNle][NMeNle]LCG-{N(Me)nPr}; thioether N-14)
10 to 60 nM	CCCC[C@H]1C(=O)N(C)[C@@H](CCCC)C(=O)N[C@@H](CC(C)C)C(=O)N[C@H](C(=O)NCC(=O)NC2CCC2)CSCC(=O)N[C@@H](Cc2ccc(O)cc2)C(=O)N(C)[C@@H](C)C(=O)N[C@@H](CC(N)=O)C(=O)N2CCC[C@H]2C(=O)N[C@@H](CN)C(=O)N[C@@H](CC(C)C)C(=O)N2C[C@H](O)C[C@H]2C(=O)N[C@@H](Cc2c[nH]c3ccccc23)C(=O)NCC(=O)N[C@@H](Cc2c[nH]c3ccccc23)C(=O)N1C [Example 13092] ({CH2CO}-Y[NMeA]NP[Dap]L[Hyp]WGW[NMeNle][NMeNle]LCG-NHcBu; thioether N-14)
10 to 60 nM	CCCC[C@H]1C(=O)N(C)[C@@H](CCCC)C(=O)N[C@@H](CC(C)C)C(=O)N[C@H](C(=O)NCC(=O)NCC2CC2)CSCC(=O)N[C@@H](Cc2ccc(O)cc2)C(=O)N(C)[C@@H](C)C(=O)N[C@@H](CC(N)=O)C(=O)N2CCC[C@H]2C(=O)N[C@@H](CN)C(=O)N[C@@H](CC(C)C)C(=O)N2C[C@H](O)C[C@H]2C(=O)N[C@@H](Cc2c[nH]c3ccccc23)C(=O)NCC(=O)NC(Cc2c[nH]c3ccccc23)C(=O)N1C (stereo partly drawn) [Example 13104] ({CH2CO}-Y[NMeA]NP[Dap]L[Hyp]WG[ξW][NMeNle][NMeNle]LCG-NHCH2cPr; thioether N-14)
